Measurements taken from PubChem BioAssay (NCI).
Where “and” joins values, the source holds several entries; their conditions need not be identical. Equal values may be shown once.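 A five-concentration, 48-hour dose response in 96-well plates underlies each endpoint, interpolated linearly between surrounding concentrations. Abbreviation: GI50, concentration required for 50% inhibition of growth. The concentration for full growth arrest is given as TGI.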

Assays:
Test in all cases: inhibition of tumour cell growth, NCI panel, 48 h
HCC-2998 colon = test system: HCC-2998 colon
SNB-75 CNS = test system: SNB-75 CNS
HOP-62 NSCLC = test system: HOP-62 NSCLC
KM20L2 colon = test system: KM20L2 colon
K-562 leukemia = test system: K-562 leukemia
NCI-H460 lung = test system: NCI-H460 lung
SNB-19 CNS = test system: SNB-19 CNS
SW-620 colon = test system: SW-620 colon
OVCAR-4 ovarian = test system: OVCAR-4 ovarian
SF-295 CNS = test system: SF-295 CNS
M19-MEL melanoma = test system: M19-MEL melanoma
LOX IMVI melanoma = test system: LOX IMVI melanoma
OVCAR-3 ovarian = test system: OVCAR-3 ovarian
M14 melanoma = test system: M14 melanoma
OVCAR-8 ovarian = test system: OVCAR-8 ovarian
SF-268 CNS = test system: SF-268 CNS
COLO 205 colon = test system: COLO 205 colon
786-0 renal = test system: 786-0 renal
DMS 114 small cell lung = test system: DMS 114 small cell lung
EKVX NSCLC = test system: EKVX NSCLC
XF 498 CNS = test system: XF 498 CNS
IGROV1 ovarian = test system: IGROV1 ovarian
HT29 colon = test system: HT29 colon
SF-539 CNS = test system: SF-539 CNS
HCT-15 colon = test system: HCT-15 colon
SK-MEL-28 melanoma = test system: SK-MEL-28 melanoma
SK-OV-3 ovarian = test system: SK-OV-3 ovarian
CAKI-1 renal = test system: CAKI-1 renal
UO-31 renal = test system: UO-31 renal
SNB-78 CNS = test system: SNB-78 CNS
A498 renal = test system: A498 renal
DLD-1 colon = test system: DLD-1 colon
UACC-62 melanoma = test system: UACC-62 melanoma
ACHN renal = test system: ACHN renal
CCRF-CEM leukemia = test system: CCRF-CEM leukemia
TK-10 renal = test system: TK-10 renal
A549 NSCLC = test system: A549 NSCLC
NCI-H23 lung = test system: NCI-H23 lung
DMS 273 small cell lung = test system: DMS 273 small cell lung
SK-MEL-5 melanoma = test system: SK-MEL-5 melanoma
HCT-116 colon = test system: HCT-116 colon
U251 CNS = test system: U251 CNS
SN12C renal = test system: SN12C renal
MOLT-4 leukemia = test system: MOLT-4 leukemia
MDA-N = test system: MDA-N
MDA-MB-435 = test system: MDA-MB-435
KM12 colon = test system: KM12 colon
RXF 393 renal = test system: RXF 393 renal
PC-3 prostate = test system: PC-3 prostate
SK-MEL-2 melanoma = test system: SK-MEL-2 melanoma
RPMI-8226 leukemia = test system: RPMI-8226 leukemia
UACC-257 melanoma = test system: UACC-257 melanoma
MCF7 breast = test system: MCF7 breast
T-47D breast = test system: T-47D breast
DU-145 prostate = test system: DU-145 prostate
HS 578T breast = test system: HS 578T breast
NCI-H522 lung = test system: NCI-H522 lung
NCI-H226 lung = test system: NCI-H226 lung
MALME-3M melanoma = test system: MALME-3M melanoma
OVCAR-5 ovarian = test system: OVCAR-5 ovarian
HOP-92 NSCLC = test system: HOP-92 NSCLC
BT-549 breast = test system: BT-549 breast
MDA-MB-231 breast = test system: MDA-MB-231 breast
HL-60(TB) leukemia = test system: HL-60(TB) leukemia
NCI/ADR-RES ovarian = test system: NCI/ADR-RES ovarian
SR leukemia = test system: SR leukemia

Work on `CCN(CC)CCCNc1nccc2c(C)c3c(cc12)c1cnccc1n3C` yielded a TGI (HCC-2998 colon) of 0.256 µM, a TGI (SNB-75 CNS) of 1.74 µM and a TGI (HOP-62 NSCLC) of 0.571 µM. The TGI (KM20L2 colon) was 1.93 µM, the TGI (K-562 leukemia) was 1.04 µM and the TGI (NCI-H460 lung) was 0.14 µM. It also gave a TGI (SNB-19 CNS) of 1.51 µM, a TGI (SW-620 colon) of 1.48 µM and a TGI (OVCAR-4 ovarian) of 0.131 µM. The TGI (SF-295 CNS) was 1.31 µM, the TGI (M19-MEL melanoma) was 2.67 µM and the TGI (LOX IMVI melanoma) was 0.268 µM. For the same compound, the TGI (OVCAR-3 ovarian) was 0.735 µM, the TGI (M14 melanoma) was 1.12 µM and the TGI (OVCAR-8 ovarian) was 1.25 µM. The TGI (SF-268 CNS) was 1.69 µM, the TGI (COLO 205 colon) was 1.4 µM and the TGI (786-0 renal) was 1.2 µM. It also gave a TGI (DMS 114 small cell lung) of 0.463 µM, a TGI (EKVX NSCLC) of 1.52 µM and a TGI (XF 498 CNS) of 0.923 µM. For the same compound, the TGI (IGROV1 ovarian) was 2.75 µM, the TGI (HT29 colon) was 1.02 µM and the TGI (SF-539 CNS) was 0.609 µM. It also gave a TGI (HCT-15 colon) of 0.779 µM, a TGI (SK-MEL-28 melanoma) of 1.47 µM and a TGI (SK-OV-3 ovarian) of 2.73 µM. The TGI (CAKI-1 renal) was 1.03 µM, the TGI (UO-31 renal) was 2.32 µM and the TGI (SNB-78 CNS) was 2.76 µM. For the same compound, the TGI (A498 renal) was 2.61 µM, the TGI (DLD-1 colon) was 0.266 µM and the TGI (UACC-62 melanoma) was 2.25 µM. It also gave a TGI (ACHN renal) of 2.41 µM, a TGI (CCRF-CEM leukemia) of 0.415 µM and a TGI (TK-10 renal) of 3.26 µM. The TGI (A549 NSCLC) was 1.37 µM, the TGI (NCI-H23 lung) was 1.18 µM and the TGI (DMS 273 small cell lung) was 0.181 µM. The TGI (SK-MEL-5 melanoma) was 1.82 µM, the TGI (HCT-116 colon) was 0.378 µM and the TGI (U251 CNS) was 1.77 µM. It also gave a TGI (SN12C renal) of 1.75 µM.
`CN1C=c2c3c(ccc2=C2C=CC4C=C5OCOC5=CC4=C21)OCO3` (stereo not drawn) was tested, and the GI50 (HCC-2998 colon) was 1.56 µM and 6.55 µM, the TGI (HCC-2998 colon) was 3.24 µM and 16.2 µM and the TGI (SNB-75 CNS) was 3.49 µM and 14.6 µM. The GI50 (MOLT-4 leukemia) was 0.253 µM and 1.74 µM, the TGI (HOP-62 NSCLC) was 2.97 µM and 6.29 µM and the TGI (MDA-N) was 2.79 µM and 3.98 µM. For the same compound, the TGI (MDA-MB-435) was 2.45 µM and 3.61 µM, the GI50 (K-562 leukemia) was 1.37 µM and 3.01 µM and the GI50 (KM12 colon) was 1.27 µM and 4.06 µM. For the same compound, the TGI (KM12 colon) was 2.8 µM and 13.2 µM, the GI50 (NCI-H460 lung) was 1.63 µM and 3.16 µM and the TGI (NCI-H460 lung) was 3.18 µM and 9.8 µM. For the same compound, the TGI (RXF 393 renal) was 2.57 µM and 4.4 µM, the TGI (PC-3 prostate) was 2.85 µM and 9.48 µM and the GI50 (SNB-19 CNS) was 1.65 µM and 12.2 µM. The TGI (SNB-19 CNS) was 3.07 µM and 25 µM, the TGI (SK-MEL-2 melanoma) was 3.53 µM and 5.87 µM and the GI50 (SW-620 colon) was 1.25 µM. For the same compound, the TGI (SW-620 colon) was 2.52 µM and 2.99 µM, the TGI (OVCAR-4 ovarian) was 3.53 µM and 7.5 µM and the GI50 (SF-295 CNS) was 1.79 µM and 8.51 µM. The TGI (SF-295 CNS) was 3.2 µM and 21.9 µM, the GI50 (RPMI-8226 leukemia) was 0.625 µM and 2.24 µM and the TGI (RPMI-8226 leukemia) was 1.86 µM and 6.79 µM. The TGI (UACC-257 melanoma) was 3.26 µM and 10.1 µM, the GI50 (MCF7 breast) was 1.48 µM and 4.4 µM and the TGI (MCF7 breast) was 2.89 µM and 17.4 µM. For the same compound, the TGI (LOX IMVI melanoma) was 3.17 µM and 3.33 µM, the TGI (T-47D breast) was 4.31 µM and 5.01 µM and the GI50 (DU-145 prostate) was 2.2 µM and 11.9 µM. The TGI (DU-145 prostate) was 3.76 µM and 24.3 µM, the TGI (OVCAR-3 ovarian) was 2.16 µM and 3.2 µM and the TGI (M14 melanoma) was 2.55 µM and 3.78 µM. For the same compound, the TGI (HS 578T breast) was > 24.9 µM and 5.78 µM, the GI50 (OVCAR-8 ovarian) was 0.423 µM and 1.52 µM and the TGI (OVCAR-8 ovarian) was 1.64 µM and 4.19 µM. The TGI (SF-268 CNS) was 3.46 µM and 6.76 µM, the TGI (NCI-H522 lung) was 2.76 µM and 3.3 µM and the TGI (COLO 205 colon) was 2.78 µM and 3.5 µM. The TGI (786-0 renal) was 2.65 µM and 3.06 µM, the GI50 (EKVX NSCLC) was 1.72 µM and 13.5 µM and the TGI (EKVX NSCLC) was 3.16 µM and 26.3 µM. For the same compound, the GI50 (NCI-H226 lung) was 1.82 µM and 7.18 µM, the TGI (NCI-H226 lung) was 3.36 µM and 14.7 µM and the TGI (MALME-3M melanoma) was 3.05 µM and 5.92 µM. For the same compound, the GI50 (OVCAR-5 ovarian) was 1.65 µM and 6.19 µM, the TGI (OVCAR-5 ovarian) was 3.04 µM and 18.5 µM and the TGI (IGROV1 ovarian) was 3.05 µM and 4.01 µM. The TGI (HT29 colon) was 3.02 µM and 5.1 µM, the TGI (SF-539 CNS) was 3.18 µM and 4.8 µM and the TGI (HCT-15 colon) was 2.89 µM and 3.2 µM. The TGI (SK-MEL-28 melanoma) was 3.07 µM and 7.28 µM, the GI50 (HOP-92 NSCLC) was 1.62 µM and 5.71 µM and the TGI (HOP-92 NSCLC) was 3 µM and 14.1 µM. The GI50 (SK-OV-3 ovarian) was 1.85 µM and 12.7 µM, the TGI (SK-OV-3 ovarian) was 3.96 µM and 25.4 µM and the TGI (BT-549 breast) was 3.38 µM and 6.26 µM. For the same compound, the GI50 (CAKI-1 renal) was 1.42 µM and 3.49 µM, the TGI (CAKI-1 renal) was 2.74 µM and 10.6 µM and the TGI (UO-31 renal) was 2.79 µM and 5 µM. The TGI (MDA-MB-231 breast) was 2.54 µM and 4.52 µM, the GI50 (A498 renal) was 2.24 µM and 14.1 µM and the TGI (A498 renal) was 5.04 µM and 27.1 µM. For the same compound, the GI50 (UACC-62 melanoma) was 1.91 µM, the GI50 (ACHN renal) was 1.68 µM and 1.85 µM and the TGI (ACHN renal) was 3.08 µM and 5.03 µM. The TGI (HL-60(TB) leukemia) was 0.434 µM and 0.847 µM, the GI50 (CCRF-CEM leukemia) was 0.21 µM and 1.03 µM and the GI50 (TK-10 renal) was 1.77 µM and 12 µM. The TGI (TK-10 renal) was 3.2 µM and 24.9 µM, the GI50 (A549 NSCLC) was 1.77 µM and 6.26 µM and the TGI (A549 NSCLC) was 3.95 µM and 18.8 µM. The TGI (NCI-H23 lung) was 2.95 µM and 10.3 µM, the GI50 (NCI/ADR-RES ovarian) was 1.58 µM and 6.13 µM and the TGI (NCI/ADR-RES ovarian) was 3.27 µM and 14.3 µM. For the same compound, the TGI (SK-MEL-5 melanoma) was 2.95 µM and 6.14 µM, the GI50 (SR leukemia) was 2.48 µM and the TGI (HCT-116 colon) was 2.39 µM and 3.19 µM. The TGI (U251 CNS) was 3.05 µM and 5.73 µM and the TGI (SN12C renal) was 2.9 µM and 3.87 µM.
